Here are results for 1 compound from publication PMC10967572, “Induction of Oxidative Stress and Ferroptosis in Triple-Negative Breast Cancer Cells by Niclosamide via Blockade of the Function and Expression of SLC38A5 and SLC7A11” (Antioxidants, 2024).

For experiment [1], the target named is T1, SLC7A11 (Homo sapiens, UniProt Q9UPY5).
T1 construct: endogenous in cells; host or cells: TNBC cell lines MB231, TXBR100 and MB453
T1 sequence (Q9UPY5 1-501): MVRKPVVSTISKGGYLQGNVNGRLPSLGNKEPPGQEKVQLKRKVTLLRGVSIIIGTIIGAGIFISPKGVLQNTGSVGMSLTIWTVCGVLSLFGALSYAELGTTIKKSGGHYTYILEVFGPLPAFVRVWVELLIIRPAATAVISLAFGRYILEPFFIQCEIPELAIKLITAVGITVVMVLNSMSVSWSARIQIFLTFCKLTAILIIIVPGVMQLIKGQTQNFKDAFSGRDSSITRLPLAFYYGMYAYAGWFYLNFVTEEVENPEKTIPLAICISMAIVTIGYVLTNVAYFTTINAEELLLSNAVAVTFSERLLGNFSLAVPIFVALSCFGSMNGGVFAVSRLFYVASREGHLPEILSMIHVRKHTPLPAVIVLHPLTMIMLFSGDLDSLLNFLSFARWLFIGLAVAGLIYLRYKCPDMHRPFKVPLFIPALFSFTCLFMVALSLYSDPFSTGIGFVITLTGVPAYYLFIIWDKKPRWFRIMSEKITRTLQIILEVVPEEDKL
T1 sequence (P08195 1-529 partner): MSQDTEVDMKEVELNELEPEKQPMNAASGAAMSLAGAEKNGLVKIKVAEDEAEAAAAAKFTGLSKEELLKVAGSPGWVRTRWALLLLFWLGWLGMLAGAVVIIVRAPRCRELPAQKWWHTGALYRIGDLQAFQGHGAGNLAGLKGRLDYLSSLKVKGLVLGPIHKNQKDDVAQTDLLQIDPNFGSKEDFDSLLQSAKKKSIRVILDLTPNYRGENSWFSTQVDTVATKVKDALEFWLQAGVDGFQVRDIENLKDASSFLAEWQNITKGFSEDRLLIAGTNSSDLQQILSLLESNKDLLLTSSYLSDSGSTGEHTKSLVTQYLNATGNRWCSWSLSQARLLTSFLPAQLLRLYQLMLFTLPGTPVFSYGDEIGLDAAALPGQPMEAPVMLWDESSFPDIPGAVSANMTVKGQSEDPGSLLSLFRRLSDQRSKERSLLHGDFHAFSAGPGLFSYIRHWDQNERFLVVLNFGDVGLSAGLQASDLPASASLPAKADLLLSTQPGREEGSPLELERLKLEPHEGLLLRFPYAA
The experiment is described as follows: Direct inhibition of SLC7A11 transport activity ([3H]-glutamate uptake) in TNBC cells. The format is cell-based. The protocol:
However, we routinely measure the activity of this transporter by cellular uptake of [^3H]-glutamate under Na^+-free conditions. Under these conditions, SLC7A11 mediates the cellular entry of [^3H]-glutamate in exchange for intracellular unlabeled glutamate. […] Non-carrier-mediated uptake (i.e, diffusional component) was determined by measuring the uptake of [^3H]-glutamate in the presence of excess unlabeled glutamate (5 mM). The transport activity of SLC7A11 was calculated by subtracting the diffusional component from total uptake.
Confluent cultures were used for uptake measurements.

The subject of experiment [2] is MB231 and TXBR100 cells. The experiment is described as follows: Cellular iron assay (Ferro-orange). The format is cell-based, human. The settings on record: niclosamide 5 μM, 30 min. On the procedure: Lipid radical (ferroptosis) assay and iron assay were performed as follows. Cells were cultured on a 25 mm glass coverslip until they reached 60–70% confluency (~48 h). At the time of the experiment, cells were washed with NaCl buffer, pH 7.5 and then incubated with 1 µM of LipiRadical Green (a lipid radical detection reagent, FDV-0042, Funakoshi, Tokyo, Japan) or Ferro-orange (an iron detection probe, F374, Dojindo, Rockville, MD, USA) in NaCl buffer, pH 7.5 for 20 min and then washed with NaCl buffer, pH 7.5. To analyze the effects of modifiers of iron levels and lipid peroxidation, the cells were co-treated with the modifiers and the respective fluorescent probe for 20 min and then washed. The glass coverslip containing the cells was then probed under an inverted microscope. The fluorescence imaging was captured using a Nikon T1-E microscope with A1 confocal super-resolution module (Nikon, Dallas, TX, USA), with a 60× objective, at 488 nm. The images represent a maximum projection intensity derived from a Z-stack. The fluorescence quantification was performed by measuring the corrected total cell fluorescence (CTCF) using Image J (version: 2.14.0/1.54f) and the following formula; CTCF = (integrated density) − (area of cell of interest) × (mean fluorescence of background).

`O=C(Nc1ccc([N+](=O)[O-])cc1Cl)c1cc(Cl)ccc1O` [niclosamide]: the “affinity for SLC7A11 relative to experimental value known for erastin” value in experiment [1] (niclosamide IC50 vs erastin literature value) is “at least three-to-four times greater”. Further, the IC50 (usually the midpoint of a concentration-inhibition curve) in experiment [1] (three TNBC cell lines (MB231, TXBR100, MB453), niclosamide present only during uptake, Na+-free buffer pH 7.5) was around 300 nM. For the same compound, the cellular iron levels result in experiment [2] is “increased”.
